Data as given in US10155021B2, “Antimicrobial 4-oxoquinolizines” (Emergent Product Development Gaithersburg Inc., priority 2011, dated 2018).
Converted amounts (≈) assume the structure as drawn. Where two headings read alike, the source gives them in different places.

How the values were obtained:
S. aureus ATCC 25923 = assay: MIC, selected panel of Gram-positive and Gram-negative strains (Example 5); assay type: cell-based
[1] = test system: S. aureus BAA-1556 (USA300-Type MRSA, FQ-R); assay: as above; assay type: cell-based, Staphylococcus aureus
E. coli ATCC 25922 = assay: as above; assay type: cell-based, Escherichia coli
A. baumannii ATCC 19606 = assay: as above; assay type: cell-based, Acinetobacter baumannii
P. aeruginosa ATCC 27853 = assay: as above; assay type: cell-based
B. thailandensis E264 = assay: microbe, parasite or virus in culture; assay type: cell-based, Burkholderia thailandensis; details: for MIC: Burkholderia thailandensis, E264, read-out: MIC B. thailandensis E264
[2] = test system: S. aureus ATCC 43300 (MRSA, FQ-S); assay: MIC, selected panel of Gram-positive and Gram-negative strains (Example 5); assay type: cell-based, Staphylococcus aureus
[3] = Staphylococcus aureus, ATCC25923, read-out: MIC S. aureus ATCC 25923
[4] = Staphylococcus aureus, read-out: MIC S. aureus BAA-1556 (USA300-Type MRSA, FQ-R)
[5] = Escherichia coli, ATCC25922, read-out: MIC E. coli ATCC 25922
[6] = Acinetobacter baumannii, ATCC19606, read-out: MIC A. baumannii ATCC 19606
[7] = Pseudomonas aeruginosa, ATCC27853, read-out: MIC P. aeruginosa ATCC 27853
[8] = Staphylococcus aureus, read-out: MIC S. aureus ATCC 43300 (MRSA, FQ-S)
[9] = Staphylococcus aureus, ATCC25923; read-out: MIC S. aureus ATCC 25923
[10] = Staphylococcus aureus; read-out: MIC S. aureus BAA-1556 (USA300-Type MRSA, FQ-R)
[11] = Escherichia coli, ATCC25922; read-out: MIC E. coli ATCC 25922
[12] = Staphylococcus aureus; read-out: MIC S. aureus ATCC 43300 (MRSA, FQ-S)
[13] = Acinetobacter baumannii, ATCC19606; read-out: MIC A. baumannii ATCC 19606
[14] = Pseudomonas aeruginosa, ATCC27853; read-out: MIC P. aeruginosa ATCC 27853

Structure (SMILES) | MIC (S. aureus ATCC 25923; [3]) | MIC [1, 4] | MIC (E. coli ATCC 25922; [5]) | MIC (A. baumannii ATCC 19606; [6]) | MIC (P. aeruginosa ATCC 27853; [7]) | MIC (B. thailandensis E264) | MIC [2, 8] | MIC (S. aureus ATCC 25923; [9]) | MIC [1, 10] | MIC (E. coli ATCC 25922; [11]) | MIC [2, 12] | MIC (A. baumannii ATCC 19606; [13]) | MIC (P. aeruginosa ATCC 27853; [14]) | MIC S. aureus BAA-1556 (USA300-Type MRSA, FQ-R) [1] | MIC E. coli ATCC 25922 (E. coli ATCC 25922) | MIC S. aureus ATCC 43300 (MRSA, FQ-S) [2] | MIC A. baumannii ATCC 19606 (A. baumannii ATCC 19606) | MIC B. thailandensis E264 (B. thailandensis E264)
Cc1c(C2=CCNCC2)c(F)cn2c(=O)c(C(=O)[O-])cc(C3CC3)c12.[K+] [Compound 62K salt, potassium 8-(1,2,3,6-tetrahydropyridin-4-yl)-1-cyclopropyl-7-fluoro-9-methyl-4-oxo-4H-quinolizine-3-carboxylate] | 0.25 µg/mL | 4 µg/mL | 0.032 µg/mL | 1 µg/mL | 1 µg/mL | 2 µg/mL |  |  |  |  |  |  |  |  |  |  |  | 
Cc1c(-c2ccncc2)c(F)cn2c(=O)c(C(=O)[O-])cc(C3CC3)c12.[K+] [Compound 59K salt, potassium 8-(pyridin-4-yl)-1-cyclopropyl-7-fluoro-9-methyl-4-oxo-4H-quinolizine-3-carboxylate] | 0.032 µg/mL | 0.5 µg/mL | 0.064 µg/mL | 0.25 µg/mL | 4 µg/mL | 0.5 µg/mL | 0.016 µg/mL |  |  |  |  |  |  |  |  |  |  | 
Cc1n[nH]c2ccc(-c3ccn4c(=O)c(C(=O)[O-])cc(C5CC5)c4c3C)cc12.[K+] [Compound 80K salt, potassium 8-(3-methyl-1H-indazol-5-yl)-1-cyclopropyl-9-methyl-4-oxo-4H-quinolizine-3-carboxylate] | ≤ 0.004 µg/mL |  | 0.064 µg/mL | 0.25 µg/mL | 4 µg/mL | 1 µg/mL | ≤ 0.004 µg/mL |  |  |  |  |  |  |  |  |  |  | 
Cc1c(-c2ccncc2F)ccn2c(=O)c(C(=O)[O-])cc(C3CC3)c12.[K+] [Compound 58K salt, potassium 8-(3-fluoropyridin-4-yl)-1-cyclopropyl-9-methyl-4-oxo-4H-quinolizine-3-carboxylate] | 0.064 µg/mL | 1 to 2 µg/mL | 0.25 µg/mL | 1 µg/mL | > 8 µg/mL | 1 µg/mL | 0.064 µg/mL |  |  |  |  |  |  |  |  |  |  | 
Cc1c(-c2ccc(C(=O)C(F)(F)F)cc2)ccn2c(=O)c(C(=O)O)cc(C3CC3)c12 [Compound 63, 8-[4-(2,2,2-trifluoroacetyl)phenyl]-1-cyclopropyl-9-methyl-4-oxo-quinolizine-3-carboxylic acid] |  |  |  |  |  | 2 µg/mL (≈ 4.82 µM) |  | 0.064 µg/mL (≈ 0.154 µM) | 1 µg/mL (≈ 2.41 µM) | 0.5 µg/mL (≈ 1.2 µM) | 0.032 µg/mL (≈ 0.077 µM) | 2 µg/mL (≈ 4.82 µM) | > 8 µg/mL |  |  |  |  | 
Cc1c(-c2ccc(CN)cc2)c(F)cn2c(=O)c(C(=O)[O-])cc(C3CC3)c12.[K+] [Compound 6K salt] |  |  |  |  |  |  |  |  |  |  |  |  |  | 1 µg/mL | 0.064 to 0.125 µg/mL | 0,064 μg/mL | 1 µg/mL | 4 µg/mL
Cc1c(-c2ccc(O)nc2)ccn2c(=O)c(C(=O)[O-])cc(C3CC3)c12.[K+] [Compound 55K salt, potassium 8-(6-hydroxypyridin-3-yl)-1-cyclopropyl-9-methyl-4-oxo-4H-quinolizine-3-carboxylate] | 0.5 µg/mL | 8 µg/mL | 0.5 µg/mL | 8 µg/mL | > 8 µg/mL | 8 µg/mL | 0.125 to 0.25 µg/mL |  |  |  |  |  |  |  |  |  |  | 
Cc1c(-c2ccc3[nH]ncc3c2)c(F)cn2c(=O)c(C(=O)[O-])cc(C3CC3)c12.[K+] [Compound 75K salt, potassium 8-(1H-indazol-5-yl)-1-cyclopropyl-7-fluoro-9-methyl-4-oxo-4H-quinolizine-3-carboxylate] | ≤ 0.004 µg/mL | 0.032 µg/mL | 0.032 µg/mL | 0.064 µg/mL | 1 µg/mL | 0.25 µg/mL | ≤ 0.004 µg/mL |  |  |  |  |  |  |  |  |  |  | 
Cc1c(-c2ccc3c(c2)C(=O)NC3)ccn2c(=O)c(C(=O)[O-])cc(C3CC3)c12.[K+] [Compound 68K salt, potassium 8-(3-oxoisoindolin-5-yl)-1-cyclopropyl-9-methyl-4-oxo-4H-quinolizine-3-carboxylate] | ≤ 0.004 µg/mL | 0.25 µg/mL | 0.064 µg/mL | 0.25 µg/mL | 2 µg/mL | 1 µg/mL | ≤ 0.004 µg/mL |  |  |  |  |  |  |  |  |  |  | 
Cc1c(-c2ccc3cn[nH]c3c2)ccn2c(=O)c(C(=O)[O-])cc(C3CC3)c12.[K+] [Compound 83K salt, potassium 8-(1H-indazol-6-yl)-1-cyclopropyl-9-methyl-4-oxo-4H-quinolizine-3-carboxylate] | ≤ 0.004 µg/mL | 0.064 µg/mL | 0.016 µg/mL | 0.032 µg/mL | 0.5 µg/mL |  | ≤ 0.004 µg/mL |  |  |  |  |  |  |  |  |  |  | 
Cc1cc(-c2ccn3c(=O)c(C(=O)[O-])cc(C4CC4)c3c2C)cnc1N.[K+] [Compound 79K salt, potassium 8-(6-amino-5-methylpyridin-3-yl)-1-cyclopropyl-9-methyl-4-oxo-4H-quinolizine-3-carboxylate] | ≤ 0.004 µg/mL |  | 0.016 µg/mL | 0.064 µg/mL | 2 µg/mL | 0.5 µg/mL | ≤ 0.004 µg/mL |  |  |  |  |  |  |  |  |  |  | 
Cc1c(-c2cn[nH]c2)ccn2c(=O)c(C(=O)[O-])cc(C3CC3)c12.[K+] [Compound 67K salt, potassium 8-(1H-pyrazol-4-yl)-1-cyclopropyl-9-methyl-4-oxo-4H-quinolizine-3-carboxylate] | 0.016 µg/mL | 1 µg/mL | 0.032 µg/mL | 0.25 µg/mL | 2 µg/mL | 0.25 µg/mL | 0.016 µg/mL |  |  |  |  |  |  |  |  |  |  | 
Cc1cc(-c2ccn3c(=O)c(C(=O)[O-])cc(C4CC4)c3c2C)ccn1.[K+] [Compound 65K salt, potassium 8-(2-methylpyridin-4-yl)-1-cyclopropyl-9-methyl-4-oxo-4H-quinolizine-3-carboxylate] | 0.016 µg/mL | 0.25 µg/mL | 0.032 to 0.064 µg/mL | 0.25 µg/mL | 4 µg/mL | 0.5 µg/mL | 0.008 µg/mL |  |  |  |  |  |  |  |  |  |  | 
Cc1c(-c2ccc3[nH]cnc3c2)ccn2c(=O)c(C(=O)[O-])cc(C3CC3)c12.[K+] [Compound 74K salt, potassium 8-(1H-benzo[d]imidazol-5-yl)-1-cyclopropyl-9-methyl-4-oxo-4H-quinolizine-3-carboxylate] | 0.016 µg/mL | 0.5 µg/mL | 0.064 to 0.125 µg/mL | 0.5 µg/mL | 8 µg/mL | 2 µg/mL | 0.016 µg/mL |  |  |  |  |  |  |  |  |  |  | 
Cc1c(-c2cnc(N)nc2)ccn2c(=O)c(C(=O)O)cc(C3CC3)c12 [Compound 57, 8-(2-aminopyrimidin-5-yl)-1-cyclopropyl-9-methyl-4-oxo-quinolizine-3-carboxylic acid] |  |  |  |  |  | > 8 µg/mL |  | 0.25 to 0.5 µg/mL (≈ 0.743 to 1.49 µM) | 8 µg/mL (≈ 23.8 µM) | 1 µg/mL (≈ 2.97 µM) | 0.25 µg/mL (≈ 0.743 µM) | 8 µg/mL (≈ 23.8 µM) | > 8 µg/mL |  |  |  |  | 
Cc1c(-c2cccc3[nH]ncc23)ccn2c(=O)c(C(=O)[O-])cc(C3CC3)c12.[K+] [Compound 82K salt, potassium 8-(1H-indazol-4-yl)-1-cyclopropyl-9-methyl-4-oxo-4H-quinolizine-3-carboxylate] | 0.016 µg/mL | 1 µg/mL | 0.125 to 0.25 µg/mL | 1 µg/mL | 8 µg/mL | 4 µg/mL | 0.016 µg/mL |  |  |  |  |  |  |  |  |  |  | 
Cc1c(-c2ccc(N)nc2)c(F)cn2c(=O)c(C(=O)[O-])cc(C3CC3)c12.[K+] [Compound 60K salt, potassium 8-(6-aminopyridin-3-yl)-1-cyclopropyl-7-fluoro-9-methyl-4-oxo-4H-quinolizine-3-carboxylate] | 0.008 µg/mL | 0.125 µg/mL | 0.032 µg/mL | 0.064 µg/mL | 2 µg/mL | 0.5 µg/mL |  |  |  |  |  |  |  |  |  |  |  | 
